Columns and labels:
Type in all cases: binding, sheep
[1] = tested on: antibodies raised against an immunogen having the structure shown in FIG. 29; assay: Fluorescence polarization immunoassay cross-reactivity, tracer of FIG. 31; settings: tracer FIG. 31
Procedure: (§1) The antibodies of the present invention are prepared by eliciting a response in sheep to the immunogens described supra. The immunogen is administered to animals or to in vitro cultures of immunocompetent cells by a series of innoculations, in a manner well known to those skilled in the art.

[2] = tested on: antibodies raised against an immunogen having the structure shown in FIG. 28; assay: Fluorescence polarization immunoassay cross-reactivity in drug-free normal human urine, tracer of FIG. 5; settings: for amount of the test compound found in the resulting human urine: 200 ng/mL added to drug-free urine, secobarbital standard
Procedure: as §1
(§2) The tracer formulation presently preferred is 150 nanomolar tracer in: 0.1 molar phosphate buffer at pH 6.2; 5% sodium 5-sulfosalicylate; 0.1% sodium azide; and 0.01% bovine gamma-globulin. The antiserum formulation comprises sheep serum diluted with: 0.1 molar tris buffer at pH 7.5; 0.1% sodium azide; 0.1% bovine gamma-globulin; and 2% ethylene glycol (volume/volume). The dilution buffer comprises: 0.1 molar sodium phosphate at pH 7.5; 0.1% sodium azide; and 0.01% bovine gamma-globulin. The pretreatment solution comprises: 0.01% bovine gamma-globulin; 0.1 molar tris buffer at pH 7.5; 0.1% sodium azide; and 10 mg/mL riboflavin binding protein.
(§3) A minimum of fifty microliters of urine is required. The calibrators, controls, or unknown samples are pipetted directly into the sample well of the TDx® or ADx® sample cartridge. […] The assay procedure from this point is fully automated.
(§4) If a manual assay is being performed, then the sample is mixed with the pretreatment solution in dilution buffer and a background reading is taken. The tracer and antibody are then mixed into the test solution. After incubation, a fluorescence polarization reading is taken.
(§5) The net fluorescence polarization value of each calibrator, control or sample is determined and is printed on the output tape of an instrument such as the Abbott TDx® Analyzer. […] The concentration of each control or sample is read off the stored calibration curve and printed on the output tape.
Cross-reactivity was tested by the method of the present invention for the commonly-used barbiturates. […]
The five columns indicate the following information:
In other words, when 200 ng of secobarbital were added to drug-free normal human urine, approximately 200 ng of secobarbital were detected in the resulting urine sample. Thus, the closer the factor is to 1.0, the more accurate the assay is with respect to the particular test compound analyzed.
The percent cross-reactivity value presented in column five was obtained by the following mathematical formula: [formula]
(§6) The five columns in Tables 4(a) and 4(b) indicate the same information as is described above for Table 3(a).

[3] = tested on: antibodies raised against an immunogen having the structure shown in FIG. 29; assay: Fluorescence polarization immunoassay cross-reactivity in drug-free normal human urine, tracer of FIG. 30; settings: for % CR / Conc. Found: tracer FIG. 30; for amount of the test compound found in the resulting human urine: 200 ng/mL added to drug-free urine, secobarbital standard
Procedure: as §1, §2, §3, §4, §5
Cross-reactivity was tested by the method of the present invention for the commonly-used barbiturates. In each case, compounds were assayed on the Abbott Laboratories+ TDx® Clinical Analyzer or the ADx® Drugs of Abuse System after adding a known quantity (200 ng/mL) of the barbiturate test compound to drug-free normal human urine.
as §6

## CC(C)Cc1ccc(C(C)C(=O)O)cc1 (stereo not shown) [Ibuprofen]
[1]; Conc. Added 1000 (ng/mL)
  % CR: 0.005%
  Conc. Found: 50 ng/mL
[2]; 1 μg/mL added
  amount of the test compound found: ND (None detected: Concentration less than the sensitivity of the assay (60 ng/mL))
[2]; 10 μg/mL added
  amount of the test compound found: ND (None detected: Concentration less than the sensitivity of the assay (60 ng/mL))
[2]; 100 μg/mL added
  amount of the test compound found: 70 ng/mL
  factor: 0.0007
  percent cross reactivity: 0.07%
[3]; Conc. Added 1000 (ng/mL)
  % CR: 0.002%
  Conc. Found: 20 ng/mL

## Butobarbital
[3]; Conc. Added 1200 ng/mL
  % CR: 48%
  Conc. Found: 580 ng/mL

## C=CCC1(c2ccccc2)C(=O)NC(=O)NC1=O [Alphenal]
[1]; Conc. Added 1200 ng/mL
  % CR: >167%
[3]; Conc. Added 1200 ng/mL
  % CR: 94%
  Conc. Found: 1130 ng/mL

## Primidone
[1]; Conc. Added 100 (ng/mL)
  % CR: 0.24%
  Conc. Found: 240 ng/mL
[2]; 1 μg/mL added
  amount of the test compound found: ND (None detected: Concentration less than the sensitivity of the assay (60 ng/mL))
[2]; 10 μg/mL added
  amount of the test compound found: 90 ng/mL
  factor: 0.009
  percent cross reactivity: 0.90%
[2]; 100 μg/mL added
  amount of the test compound found: 320 ng/mL
  factor: 0.0032
  percent cross reactivity: 0.32%
[3]; 10 μg/mL added
  amount of the test compound found: ND (None detected: Concentration less than the sensitivity of the assay (60 ng/mL))
[3]; 100 μg/mL added
  amount of the test compound found: 195 ng/mL
  factor: 0.00019
  percent cross reactivity: 0.19%
[3]; Conc. Added 100 (ng/mL)
  % CR: 0.18%
  Conc. Found: 180 ng/mL

## C=CCC1(CC(=C)Br)C(=O)NC(=O)NC1=O [Brallobarbital]
[1]; Conc. Added 1200 ng/mL
  % CR: 159%
  Conc. Found: 1910 ng/mL
[3]; 200 ng/mL added
  factor which overestimates or underestimates the compound assayed for: 0.94
  percent cross reactivity: 94%
[3]
  amount of the test compound found in the resulting human urine: 188 ng/mL
[3]; Conc. Added 1200 ng/mL
  % CR: 117%
  Conc. Found: 1400 ng/mL

## CCC1(c2ccccc2)C(=O)NC(=O)NC1=O [Phenobarbital]
[1]; Conc. Added 1200 ng/mL
  % CR: 107%
  Conc. Found: 1280 ng/mL
[2]; 200 ng/mL added
  factor which overestimates or underestimates the compound assayed for: 1.05
  percent cross reactivity: 105%
[2]
  amount of the test compound found in the resulting human urine: 210 ng/mL
[3]; 200 ng/mL added
  factor which overestimates or underestimates the compound assayed for: 0.70
  percent cross reactivity: 70%
[3]
  amount of the test compound found in the resulting human urine: 140 ng/mL
[3]; Conc. Added 1200 ng/mL
  % CR: 62%
  Conc. Found: 740 ng/mL

## C=CCC1(C2C=CCC2)C(=O)NC(=O)NC1=O (stereo not shown) [Cyclopentobarbital]
[1]; Conc. Added 1200 ng/mL
  % CR: >167%
[3]; Conc. Added 1200 ng/mL
  % CR: >167%

## CCC1(CCC(C)C)C(=O)NC(=O)NC1=O [Amobarbital]
[1]; Conc. Added 1200 ng/mL
  % CR: 73%
  Conc. Found: 870 ng/mL
[2]; 200 ng/mL added
  factor which overestimates or underestimates the compound assayed for: 1.55
  percent cross reactivity: 155%
[2]
  amount of the test compound found in the resulting human urine: 310 ng/mL
[3]; 200 ng/mL added
  factor which overestimates or underestimates the compound assayed for: 0.43
  percent cross reactivity: 43%
[3]
  amount of the test compound found in the resulting human urine: 85 ng/mL
[3]; Conc. Added 1200 ng/mL
  % CR: 41%
  Conc. Found: 490 ng/mL

Source: US6472227B1, “Barbiturate assay, tracers, immunogens, antibodies and kit” (Abbott Laboratories, priority 1986, dated 2002)
